{"source": "patent US6548634B1", "about": "“Synthetic peptides having FGF receptor affinity” (priority 1998, dated 2003)", "molecules": {"B1": {"name": "F12jun: F12 sequence fused to GGGS linker, c-jun leucine zipper flanked by cysteines, polyhistidine tag; SEQ ID NO:43 (protein)", "chain": "MATLVCDTVLEGQWRVCNWEGPGGGSGGGSGGGSGGGSGGGSRCGGRIARLEEKVKTLKAQNSELASTANMLREQVAQLKQKVMNGGCGGSGGHHHHHH"}, "B2": {"name": "C19junΔhep: C19jun with c-jun residues Arg276, Arg279, Lys285, Lys288 in the leucine zipper changed to glutamines (protein)", "chain": "MAESGDDYCVLVFTDSAWTKICDWSHFRNGPGGGSGGGSGGGSGGGSGGGSRCGGQIAQLEEKVQTLQAQNSELASTANMLREQVAQLKQKVMNHGGCGGSGGHHHHHH"}}, "key": {"Swiss 3T3 fibroblasts": {"system": "Swiss 3T3 fibroblasts", "test": "BrdU incorporation (mitogenesis) in Swiss 3T3 fibroblasts", "type": "cell-based", "conditions": "for mitogenic activity in Swiss 3T3: BrdU incorporation", "procedure": "6×Histidine-tagged Clone 19-jun protein (FIG. 1A) was expressed in bacteria and purified by metal affinity chromatography as described in Example 5. Assay of BrdU incorporation, a measure of entry of cells into S-phase and therefore of mitogenesis, was performed according to manufacturers instructions (Cell proliferation ELISA, BrdU, Cat. No. 1-647-229, Boehringer-Mannheim, Indianapolis, Ind.). Briefly, 1×10^4 Swiss 3T3 cells per well were plated on gelatin-coated 96-well microtiter plates in complete media (DMEM, 10% FCS, antibiotics), incubated 24 hours, and the media changed to quiescent media for an addition 24 hours (DMEM containing 0.5 mg/ml bovine serum albumin, 1 μg/ml insulin, 5 μg/ml transferrin, antibiotics). The cells were then treated with bFGF or Clone 19-jun protein at the indicated concentrations in the presence of 15 U/ml heparin. 18 hours later, BrdU was added, the cells incubated an additional 4 hours, and assayed as described. […] Heparin alone had no effect, nor did a control protein expressed and purified in the same manner in which the C19 sequence was deleted."}, "FGFR": {"system": "FGFR", "test": "FGFR autophosphorylation in Swiss 3T3 cells (anti-FGFR IP, anti-phosphotyrosine blot)", "type": "cell-based", "conditions": "1.0 nM bFGF or 50 nM C19jun, 15 U/ml heparin, 15 minutes", "procedure": "(§1) To determine whether C19jun could activate FGF receptors in vivo, Swiss 3T3 cells were treated with basic FGF (bFGF) or purified C19jun protein. Cell extracts were then immunoprecipitated with anti-FGFR antibodies, analyzed by SDS-PAGE and immunoblotted with anti-phosphotyrosine antibodies. Extracts from bFGF and C19jun-stimulated 293 cells expressing FGFR1c were also immunoblotted with phospho-MAP Kinase-specific antibodies.\n(§2) Swiss 3T3 fibroblasts, or 293 cells expressing full-length FGFRIc were incubated in quiescing media (DMEM, 1 μg/ml insulin, 5 μg/ml transferrin, 0.5 mg/ml BSA) for 24-48 hrs, and then stimulated with 1.0 nM bFGF or 50 nM refolded C19jun protein in the presence of 15 U/ml heparin for 15 minutes at 37° C. The cells were lysed and aliquots of lysate containing equal amounts of total protein were either analyzed directly by immunoblotting with phospho-MAPKspecific antibodies and anti-total MAPK antisera (New England Biolabs) or immunoprecipitated with anti-FGFR antisera and immunoblotted with anti-phosphotyrosine antibodies (Upstate Biotechnology, Inc.). Both bFGF and C19jun induced FGFR autophosphorylation and MAP kinase phosphorylation."}, "[1]": {"system": "293 cells expressing full-length FGFR1c", "test": "MAP kinase phosphorylation in 293 cells expressing FGFR1c", "type": "cell-based", "conditions": "1.0 nM bFGF or 50 nM C19jun, 15 U/ml heparin, 15 minutes", "procedure": "as §1, §2"}, "PC12 cells": {"system": "PC12 cells", "test": "PC12 cell neurite outgrowth", "type": "cell-based", "conditions": "1 nM bFGF or 2 nM C19-jun, 15 U/ml heparin, 4 days", "procedure": "1×10^4 PC12 cells per well were plated on mouse laminin-and-poly-L-lysine-coated 24-well plates in 1 ml of media (RPMI 1640, 10% horse serum, 5% FCS, antibiotics) and stimulated with 1 nM bFGF or 2 nM C19-jun protein in the presence of 15 U/ml heparin for 4 days."}, "[2]": {"system": "L6 myoblast cell lines stably expressing FGFR1c", "test": "c-fos mRNA expression in L6 myoblasts stably expressing FGFR1c", "type": "cell-based"}, "control L6 cells": {"system": "control L6 cells", "test": "c-fos mRNA expression in control L6 cells that do not express FGFR", "type": "cell-based"}, "FGFR1c ECD": {"biological_target": "T1, FGFR1c ECD (Homo sapiens, UniProt P11362)", "T1 construct": "human FGFR Ic (residues 1-377); made in house", "T1 sequence (P11362 22-377)": "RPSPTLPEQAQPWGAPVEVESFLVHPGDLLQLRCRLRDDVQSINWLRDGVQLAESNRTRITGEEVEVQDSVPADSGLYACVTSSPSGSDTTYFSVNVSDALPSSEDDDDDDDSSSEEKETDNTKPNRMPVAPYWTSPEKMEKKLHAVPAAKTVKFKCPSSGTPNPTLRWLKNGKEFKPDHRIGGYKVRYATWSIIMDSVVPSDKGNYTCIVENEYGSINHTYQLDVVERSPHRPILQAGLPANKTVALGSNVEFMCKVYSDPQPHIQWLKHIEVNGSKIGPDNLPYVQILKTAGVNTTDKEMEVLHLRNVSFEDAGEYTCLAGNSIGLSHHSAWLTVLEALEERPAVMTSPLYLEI", "test": "BIAcore real-time kinetic analysis on immobilized FGFR1c ECD", "type": "binding", "conditions": "absence of heparin", "procedure": "Apparent affinities for immobilized FGFR1c ECD were determined using BIAcore real-time kinetic analysis in the absence of heparin.\nProtein representing the linker segments and c-jun leucine zipper without the C19 sequence (FIG. 2) was expressed, purified, and characterized as for C19jun. C19 peptide with an intrapeptide disulfide bond was synthesized, purified by HPLC, and characterized by mass spectroscopy. C19junΔhep protein was prepared by changing human c-jun residues Arg276, Arg279, Lys285, and Lys288 in the leucine zipper domain to glutamines. Expression, purification, and characterization was as for C19jun. […] The extracellular ligand-binding domain of human FGFR Ic (residues 1-377) and human erythropoietin receptor (residues 1-250) were fused to the Fc region of human IgG1, expressed in baculovirus and purified by protein A affinity chromatography. […] PDGF receptor Fc fusion protein was from R&D Systems."}, "[3]": {"biological_target": "T2, FGFR1c extracellular domain-IgG fusion protein (Homo sapiens, UniProt P11362)", "T2 construct": "human FGFR Ic (residues 1-377); made in house", "T2 sequence (P11362 22-377)": "T1 sequence (P11362 22-377)", "test": "Eu-labeled FGFR-IgG displacement from immobilized phagemid", "type": "binding", "conditions": "phage-displayed peptide, FIG. 7, read-out: IC50, displacement of Europium-labeled FGFR-IgG by unlabeled FGFR-IgG", "procedure": "The immobilization of phagemid using antibodies, followed by probing with selected ligand in an ELISA format has been reported previously (Valadon, P. & Scharff, M. D., 1996 J. Immunol. Methods 197, 171-179). We developed a more sensitive detection method using Europium chelate-conjugated target receptor.\nNunc Maxisorp 96-well plates were coated with […] anti-M13 antibody in […] 50 mM Na2CO3 pH 9.6 and blocked using the conditions described in Example 2. Phagemid (˜10^11 cfu) were applied to wells in binding buffer for 1 h and washed 6 times with PBS, 0.05% Tween 20, and 2 times with Delphia Wash Buffer (E&G Wallac). Serial dilutions of unlabeled FGFR-IgG were added along with a constant amount (500 pM−2.5 nM) of Europium-labeled FGFR-IgG in Delphia Assay Buffer (prepared according to instructions from E&G Wallac), and reactions allowed to incubate for 2 h. Wells were washed 8× in Delphia Wash Buffer, treated with 100 μL of Delphia Enhancer Solution and fluorescence measured. IC50 values were determined from four-parameter fits to displacement plots."}, "[4]": {"test": "Binding to heparin agarose beads"}}, "note": "Read-outs that look alike come from different tables or passages of the source. Where a SMILES comes first, the peptide text is derived from it. Where no end group is shown, it is not given here."}
{"molecule": "bFGF: basic fibroblast growth factor, natural FGF receptor ligand used as comparator [reference compound]", "values": [{"measurement": "EC50", "setting": "Swiss 3T3 fibroblasts; Swiss 3T3, 15 U/ml heparin, FIG. 3, read-out: EC50 stimulation of mitogenesis (BrdU incorporation)", "result": 0.14, "unit": "nM"}, {"measurement": "FGFR autophosphorylation", "setting": "FGFR", "result": "induced"}, {"measurement": "MAP kinase phosphorylation", "setting": "[1]", "result": "induced"}, {"measurement": "neurite outgrowth / PC12 cell differentiation", "setting": "PC12 cells", "result": "appearance of neurite extensions"}, {"measurement": "c-fos mRNA expression in FGFR-expressing L6 cells", "setting": "[2]", "result": "stimulated c-fos mRNA expression"}, {"measurement": "c-fos mRNA expression in control L6 cells", "setting": "control L6 cells", "result": "neither was active"}]}
{"molecule": "jun leucine zipper only: Protein representing the linker segments and c-jun leucine zipper without the C19 sequence (RIARLEEKVKTLKAQNSELASTANMLREQVAQLKQKVMN; not fully specified) [reference compound]", "values": [{"measurement": "mitogenic activity in Swiss 3T3", "setting": "Swiss 3T3 fibroblasts; listed as Deletion of the C19 sequence from the fusion protein", "result": "abrogated mitogenic activity"}, {"measurement": "mitogenic activity in Swiss 3T3", "setting": "Swiss 3T3 fibroblasts; listed as control protein", "result": "had no effect"}, {"measurement": "Kd", "setting": "FGFR1c ECD; BIAcore, approximate, read-out: KD, apparent affinity for immobilized FGFR1c ECD", "result": "> 10000", "unit": "nM"}]}
{"molecule": "CC[C@H](C)[C@@H]1NC(=O)[C@H](CCCCN)NC(=O)[C@H]([C@@H](C)O)NC(=O)[C@H](Cc2c[nH]c3ccccc23)NC(=O)[C@H](C)NC(=O)[C@H](CO)NC(=O)[C@H](CC(=O)O)NC(=O)[C@H]([C@@H](C)O)NC(=O)[C@H](Cc2ccccc2)NC(=O)[C@H](C(C)C)NC(=O)[C@H](CC(C)C)NC(=O)[C@H](C(C)C)NC(=O)[C@@H](NC(=O)[C@H](Cc2ccc(O)cc2)NC(=O)[C@H](CC(=O)O)NC(=O)[C@H](CC(=O)O)NC(=O)CNC(=O)[C@H](CO)NC(=O)[C@H](CCC(=O)O)NC(=O)[C@H](C)N)CSSC[C@@H](C(=O)N[C@@H](CC(=O)O)C(=O)N[C@@H](Cc2c[nH]c3ccccc23)C(=O)N[C@@H](CO)C(=O)N[C@@H](Cc2c[nH]cn2)C(=O)N[C@@H](Cc2ccccc2)C(=O)N[C@@H](CCCNC(=N)N)C(=O)N[C@@H](CC(N)=O)C(=O)O)NC1=O", "note": "[C19 synthetic peptide] (HELM PEPTIDE1{A.E.S.G.D.D.Y.C.V.L.V.F.T.D.S.A.W.T.K.I.C.D.W.S.H.F.R.N}$PEPTIDE1,PEPTIDE1,8:R3-21:R3$$$V2.0; N-terminus and C-terminus assumed)", "values": [{"measurement": "mitogenic activity in Swiss 3T3", "setting": "Swiss 3T3 fibroblasts", "result": "did not induce mitogenesis even at high concentrations"}]}
{"molecule": "TLVCDTVLEGQWRVCNWE [F12 clone]", "values": [{"measurement": "IC50", "setting": "[3]", "result": "~12", "unit": "nM"}]}
{"molecule": "B1", "values": [{"measurement": "EC50", "setting": "Swiss 3T3 fibroblasts; Swiss 3T3, 18 hrs, 15 U/ml heparin, FIG. 6, read-out: EC50 mitogenic activity (BrdU incorporation)", "result": "~1.7", "unit": "nM"}]}
{"molecule": "B2", "values": [{"measurement": "mitogenic activity in Swiss 3T3", "setting": "Swiss 3T3 fibroblasts", "result": "inactive"}, {"measurement": "binding to immobilized FGFR ECD", "setting": "FGFR1c ECD; in vitro", "result": "same apparent affinity as C19jun"}, {"measurement": "heparin binding", "setting": "[4]", "result": "very low affinity for heparin"}]}
